Assays:
[1] = biological target: Human M3 receptor (Homo sapiens, UniProt P20309); settings: read-out: M3 binding affinity
[2] = biological target: Human β2 adrenoceptor (Homo sapiens, UniProt P07550); settings: read-out: B2 binding affinity
Human β2 adrenoceptor, sequence (P07550 whole entry): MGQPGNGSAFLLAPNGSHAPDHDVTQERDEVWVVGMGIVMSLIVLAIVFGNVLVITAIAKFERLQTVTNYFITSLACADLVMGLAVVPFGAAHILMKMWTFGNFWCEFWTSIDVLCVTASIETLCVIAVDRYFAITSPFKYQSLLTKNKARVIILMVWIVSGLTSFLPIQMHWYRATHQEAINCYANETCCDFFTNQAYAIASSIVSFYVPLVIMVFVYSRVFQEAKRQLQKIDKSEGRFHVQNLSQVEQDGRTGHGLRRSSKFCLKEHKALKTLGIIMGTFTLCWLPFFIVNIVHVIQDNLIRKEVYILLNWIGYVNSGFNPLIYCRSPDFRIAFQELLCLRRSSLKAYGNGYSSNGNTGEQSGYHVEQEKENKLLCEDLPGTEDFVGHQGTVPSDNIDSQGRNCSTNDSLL

Human M3 receptor, sequence (P20309 whole entry): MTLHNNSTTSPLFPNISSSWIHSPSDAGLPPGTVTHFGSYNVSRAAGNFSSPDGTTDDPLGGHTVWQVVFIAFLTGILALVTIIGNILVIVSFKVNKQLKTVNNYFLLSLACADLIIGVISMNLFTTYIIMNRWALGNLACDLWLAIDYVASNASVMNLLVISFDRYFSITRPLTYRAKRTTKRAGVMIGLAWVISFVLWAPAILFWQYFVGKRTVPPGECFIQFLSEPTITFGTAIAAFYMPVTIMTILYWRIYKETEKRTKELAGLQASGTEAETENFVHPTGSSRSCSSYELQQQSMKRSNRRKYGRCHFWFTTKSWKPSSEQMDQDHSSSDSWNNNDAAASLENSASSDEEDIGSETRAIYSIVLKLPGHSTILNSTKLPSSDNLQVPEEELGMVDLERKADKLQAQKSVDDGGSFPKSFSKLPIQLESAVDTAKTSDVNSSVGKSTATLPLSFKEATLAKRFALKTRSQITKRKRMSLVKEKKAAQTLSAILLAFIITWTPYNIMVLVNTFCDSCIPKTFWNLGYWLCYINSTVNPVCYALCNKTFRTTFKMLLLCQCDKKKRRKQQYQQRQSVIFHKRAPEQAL

Structure (SMILES)	IC50 [1] [nM]	IC50 [2] [nM]
O=C(NCCCOc1cccc([C@](O)(C(=O)OCC2CCN(Cc3ccccc3)CC2)c2ccccc2)c1)c1ccc(CNC[C@H](O)c2ccc(O)c3[nH]c(=O)ccc23)cc1 [Compound 32, (S)-(1-benzylpiperidin-4-yl)methyl 2-hydroxy-2-(3-(3-(4-((((R)-2-hydroxy-2-(8-hydroxy-2-oxo-1,2-dihydroquinolin-5-yl)ethyl)amino)methyl)benzamido)propoxy)phenyl)-2-phenylacetate]	0.3 to 3	< 0.3
COc1cc(C(=O)NCCCOc2cccc([C@](O)(C(=O)OCC3CCN(Cc4ccccc4)CC3)c3ccccc3)c2)ccc1CNC[C@H](O)c1ccc(O)c2[nH]c(=O)ccc12 [Compound 32A, (S)-(1-benzylpiperidin-4-yl)methyl 2-hydroxy-2-(3-(3-(4-((((R)-2-hydroxy-2-(8-hydroxy-2-oxo-1,2-dihydroquinolin-5-yl)ethyl)amino)methyl)-3-methoxybenzamido)propoxy)phenyl)-2-phenylacetate]	0.3 to 3	< 0.3
COc1cc(CNC[C@H](O)c2ccc(O)c3[nH]c(=O)ccc23)ccc1C(=O)NCCCOc1cccc([C@](O)(C(=O)OCC2CCN(Cc3ccccc3)CC2)c2ccccc2)c1 [Compound 32B, (S)-(1-benzylpiperidin-4-yl)methyl 2-hydroxy-2-(3-(3-(4-((((R)-2-hydroxy-2-(8-hydroxy-2-oxo-1,2-dihydroquinolin-5-yl)ethyl)amino)methyl)-2-methoxybenzamido)propoxy)phenyl)-2-phenylacetate]	< 0.3	< 0.3
O=C(NCCCOc1cccc([C@](O)(C(=O)OCC2CCN(Cc3ccccc3)CC2)c2ccccc2)c1)c1ccc(CNC[C@H](O)c2ccc(O)c3[nH]c(=O)ccc23)nc1 [Compound 32C, (S)-(1-benzylpiperidin-4-yl)methyl 2-hydroxy-2-(3-(3-(6-((((R)-2-hydroxy-2-(8-hydroxy-2-oxo-1,2-dihydroquinolin-5-yl)ethyl)amino)methyl)nicotinamido)propoxy)phenyl)-2-phenylacetate]	0.3 to 3	< 0.3
CCOc1cc(C(=O)NCCCOc2cccc([C@](O)(C(=O)OCC3CCN(Cc4ccccc4)CC3)c3ccccc3)c2)ccc1CNC[C@H](O)c1ccc(O)c2[nH]c(=O)ccc12 [Compound 32D, (S)-(1-benzylpiperidin-4-yl)methyl 2-(3-(3-(3-ethoxy-4-((((R)-2-hydroxy-2-(8-hydroxy-2-oxo-1,2-dihydroquinolin-5-yl)ethyl)amino)methyl)benzamido)propoxy)phenyl)-2-hydroxy-2-phenylacetate]	0.3 to 3	< 0.3
O=C(NCCCOc1cccc([C@](O)(C(=O)OCC2CCN(Cc3ccccc3)CC2)c2ccccc2)c1)c1ccc(CNC[C@H](O)c2ccc(O)c3[nH]c(=O)ccc23)c(OC(F)(F)F)c1 [Compound 32E, (S)-(1-benzylpiperidin-4-yl)methyl 2-hydroxy-2-(3-(3-(4-((((R)-2-hydroxy-2-(8-hydroxy-2-oxo-1,2-dihydroquinolin-5-yl)ethyl)amino)methyl)-3-(trifluoromethoxy)benzamido)propoxy)phenyl)-2-phenylacetate]	0.3 to 3	0.3 to 3
COc1c(CNC[C@H](O)c2ccc(O)c3[nH]c(=O)ccc23)ccc(C(=O)NCCCOc2cccc([C@](O)(C(=O)OCC3CCN(Cc4ccccc4)CC3)c3ccccc3)c2)c1F [Compound 32F, (S)-(1-benzylpiperidin-4-yl)methyl 2-(3-(3-(2-fluoro-4-((((R)-2-hydroxy-2-(8-hydroxy-2-oxo-1,2-dihydroquinolin-5-yl)ethyl)amino)methyl)-3-methoxybenzamido)propoxy)phenyl)-2-hydroxy-2-phenylacetate]	0.3 to 3	< 0.3
CC(C)Oc1cc(C(=O)NCCCOc2cccc([C@](O)(C(=O)OCC3CCN(Cc4ccccc4)CC3)c3ccccc3)c2)ccc1CNC[C@H](O)c1ccc(O)c2[nH]c(=O)ccc12 [Compound 32G, (S)-(1-benzylpiperidin-4-yl)methyl 2-hydroxy-2-(3-(3-(4-((((R)-2-hydroxy-2-(8-hydroxy-2-oxo-1,2-dihydroquinolin-5-yl)ethyl)amino)methyl)-3-isopropoxybenzamido)propoxy)phenyl)-2-phenylacetate]	0.3 to 3	0.3 to 3
O=C(NCCCOc1cccc([C@](O)(C(=O)OCC2CCN(Cc3ccccc3)CC2)c2ccccc2)c1)c1ccc(CNC[C@H](O)c2ccc(O)c3[nH]c(=O)ccc23)cc1Cl [Compound 32H, (S)-(1-benzylpiperidin-4-yl)methyl 2-(3-(3-(2-chloro-4-((((R)-2-hydroxy-2-(8-hydroxy-2-oxo-1,2-dihydroquinolin-5-yl)ethyl)amino)methyl)benzamido)propoxy)phenyl)-2-hydroxy-2-phenylacetate]	0.3 to 3	< 0.3
COc1cc(C(=O)NCCCOc2cccc([C@](O)(C(=O)OCC3CCN(Cc4ccccc4)CC3)c3ccccc3)c2)c(F)cc1CNC[C@H](O)c1ccc(O)c2[nH]c(=O)ccc12 [Compound 32I, (S)-(1-benzylpiperidin-4-yl)methyl 2-(3-(3-(2-fluoro-4-((((R)-2-hydroxy-2-(8-hydroxy-2-oxo-1,2-dihydroquinolin-5-yl)ethyl)amino)methyl)-5-methoxybenzamido)propoxy)phenyl)-2-hydroxy-2-phenylacetate]	< 0.3	< 0.3
COc1cc(C(=O)NCCCOc2cccc([C@](O)(C(=O)OCC3CCN(Cc4ccccc4)CC3)c3ccccc3)c2)c(Cl)cc1CNC[C@H](O)c1ccc(O)c2[nH]c(=O)ccc12 [Compound 32J, (S)-(1-benzylpiperidin-4-yl)methyl 2-(3-(3-(2-chloro-4-((((R)-2-hydroxy-2-(8-hydroxy-2-oxo-1,2-dihydroquinolin-5-yl)ethyl)amino)methyl)-5-methoxybenzamido)propoxy)phenyl)-2-hydroxy-2-phenylacetate]	0.3 to 3	< 0.3
O=C(NCCCOc1cccc([C@](O)(C(=O)OCC2CCN(Cc3ccccc3)CC2)c2ccccc2)c1)c1ccc(CNC[C@H](O)c2ccc(O)c3[nH]c(=O)ccc23)cn1 [Compound 32K, (S)-(1-benzylpiperidin-4-yl)methyl 2-hydroxy-2-(3-(3-(5-((((R)-2-hydroxy-2-(8-hydroxy-2-oxo-1,2-dihydroquinolin-5-yl)ethyl)amino)methyl)picolinamido)propoxy)phenyl)-2-phenylacetate]	0.3 to 3	< 0.3
O=C(NCCCOc1cccc([C@](O)(C(=O)OCC2CCN(Cc3ccccc3)CC2)c2ccccc2)c1)c1ccc(CNC[C@H](O)c2ccc(O)c3[nH]c(=O)ccc23)c(F)c1F [Compound 32L, (S)-(1-benzylpiperidin-4-yl)methyl 2-(3-(3-(2,3-difluoro-4-((((R)-2-hydroxy-2-(8-hydroxy-2-oxo-1,2-dihydroquinolin-5-yl)ethyl)amino)methyl)benzamido)propoxy)phenyl)-2-hydroxy-2-phenylacetate]	0.3 to 3	> 3
O=C(NCCCOc1cccc([C@](O)(C(=O)OCC2CCN(Cc3ccccc3)CC2)c2ccccc2)c1)c1ccc(CNC[C@H](O)c2ccc(O)c3[nH]c(=O)ccc23)c(C(F)(F)F)c1 [Compound 32M, (S)-(1-benzylpiperidin-4-yl)methyl (S)-2-hydroxy-2-(3-(3-(4-((((R)-2-hydroxy-2-(8-hydroxy-2-oxo-1,2-dihydroquinolin-5-yl)ethyl)amino)methyl)-3-(trifluoromethyl)benzamido)propoxy)phenyl)-2-phenylacetate]	0.3 to 3	> 3
O=C(c1ccc(COc2cccc([C@](O)(C(=O)OCC3CCN(Cc4ccccc4)CC3)c3ccccc3)c2)cc1)N1CCC(CNC[C@H](O)c2ccc(O)c3[nH]c(=O)ccc23)CC1 [Compound 33, (S)-(1-benzylpiperidin-4-yl)methyl 2-hydroxy-2-(3-((4-(4-((((R)-2-hydroxy-2-(8-hydroxy-2-oxo-1,2-dihydroquinolin-5-yl)ethyl)amino)methyl)-piperidine-1-carbonyl)benzyl)oxy)phenyl)-2-phenylacetate]	< 0.3	< 0.3
O=C1C=Cc2c([C@@H](O)CNCCC3CCN(C(=O)c4ccc(COc5cccc([C@](O)(C(=O)OCC6CCN(Cc7ccccc7)CC6)c6ccccc6)c5)cc4)CC3)ccc(O)c2C1 [Compound 33A, (1-benzylpiperidin-4-yl)methyl (S)-2-hydroxy-2-(3-((4-(4-(2-(((R)-2-hydroxy-2-(4-hydroxy-6-oxo-5,6-dihydronaphthalen-1-yl)ethyl)amino)ethyl)piperidine-1-carbonyl)benzyl)oxy)phenyl)-2-phenylacetate]	0.3 to 3	< 0.3
O=C(NCCOc1cccc([C@@](O)(C(=O)OCC2CCN(Cc3ccccc3)CC2)c2ccccc2)c1)c1ccc(CCNC[C@H](O)c2ccc(O)c3[nH]c(=O)ccc23)cc1 [Compound 34, (R)-(1-benzylpiperidin-4-yl)methyl 2-hydroxy-2-(3-(2-(4-(2-(((R)-2-hydroxy-2-(8-hydroxy-2-oxo-1,2-dihydroquinolin-5-yl)ethyl)amino)ethyl)benzamido)ethoxy)phenyl)-2-phenylacetate]	> 3	0.3 to 3
O=C(c1cccc(COc2cccc([C@](O)(C(=O)OCC3CCN(Cc4ccccc4)CC3)c3ccccc3)c2)c1)N1CCC(CNC[C@H](O)c2ccc(O)c3[nH]c(=O)ccc23)CC1 [Compound 35, (S)-(1-benzylpiperidin-4-yl)methyl 2-hydroxy-2-(3-((3-(4-((((R)-2-hydroxy-2-(8-hydroxy-2-oxo-1,2-dihydroquinolin-5-yl)ethyl)amino)methyl)-piperidine-1-carbonyl)benzyl)oxy)phenyl)-2-phenylacetate]	< 0.3	< 0.3
O=C(COc1cccc([C@](O)(C(=O)OCC2CCN(Cc3ccccc3)CC2)c2ccccc2)c1)N1CCC(CNC[C@H](O)c2ccc(O)c3[nH]c(=O)ccc23)CC1 [Compound 36, (S)-(1-benzylpiperidin-4-yl)methyl 2-hydroxy-2-(3-(2-(4-((((R)-2-hydroxy-2-(8-hydroxy-2-oxo-1,2-dihydroquinolin-5-yl)ethyl)amino)methyl)piperidin-1-yl)-2-oxoethoxy)phenyl)-2-phenylacetate]	< 0.3	< 0.3

From patent publication US9579314B2 (priority 2015, dated 2017)
